Test results as given in patent publication US11485747B2, “Diphenylmethane protective agent” (priority 2016, dated 2022).
≈ marks a conversion by molar mass, not a printed value. Where a SMILES comes first, the peptide text is derived from it.

Assay: physchem
Type: physicochemical
Procedure: Peptide used as model: H-Gly-Gly-Gly-NH2
H-Gly-Gly-Gly-NH2 and H-Gly-Gly-Gly-NH-(TIPS2-Dpm) were synthesized, CPME (cyclopentyl methyl ether) was saturated with each of the compounds at 25° C., and the solubility was measured.

CC(C)[Si](OCCCCCCCCCCCOc1ccc(C(NC(=O)CNC(=O)CNC(=O)CN)c2ccc(OCCCCCCCCCCCO[Si](C(C)C)(C(C)C)C(C)C)cc2)cc1)(C(C)C)C(C)C [H-Gly-Gly-Gly-NH-(TIPS2-Dpm)]
increase in solubility: ≥ 10,000 fold
solubility: 426 mM (≈ 443 mg/mL)

NCC(=O)NCC(=O)NCC(N)=O [H-Gly-Gly-Gly-NH2, reference compound] (H-Gly-Gly-Gly-NH2)
solubility: 0.039 mM (≈ 0.00734 mg/mL)
